The supplement of paper PMC4862054

System: MFM-223
Test: drug sensitivity score (DSS), CellTiter-Glo (DSS (AUC-based score)); higher = stronger drug effect (viability inhibition or cytotoxicity); extreme values may be limits of the assay
Conditions: incubation time: 72 h
Summary of the method: (§1)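 For 72 h, breast cancer cell lines seeded at 20 µl suspension per well in 384-well plates were incubated with compound at 5 concentrations in 10-fold steps spanning a 10,000-fold range that differed by compound. The first reading was CellTox Green fluorescence at 485/520 nm, and the second was CellTiter-Glo luminescence after 10 min at room temperature. Both were normalised per plate to 0.1 % DMSO and a positive kill control, and the drug sensitivity score was obtained from the area under the fitted dose-response curve.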

SMILES	drug sensitivity score
CC1=C(/C=C/C(C)=C/C=C/C(C)=C/C(=O)O)C(C)(C)CCC1 [Tretinoin]	0
Nc1ccccc1NC(=O)c1ccc(CNC(=O)OCc2cccnc2)cc1 [Entinostat]	3.34
C=CC(=O)Nc1cc2c(Nc3ccc(F)c(Cl)c3)ncnc2cc1OCCCN1CCOCC1 [Canertinib]	3.18
CCCCC(=O)OCC(=O)[C@]1(O)Cc2c(O)c3c(c(O)c2[C@@H](O[C@H]2C[C@H](NC(=O)C(F)(F)F)[C@H](O)[C@H](C)O2)C1)C(=O)c1c(OC)cccc1C3=O [Valrubicin]	1.28

System: MDA-MB-231
Test: as above
Conditions: incubation time: 72 h
Summary of the method: as §1

SMILES	drug sensitivity score
CCc1cncnc1N1CCN(Cc2nc3ccc(C(F)(F)F)cc3[nH]2)CC1	0
Oc1ncc(N(CCCl)CCCl)c(O)n1 [Uracil mustard]	0
COc1cc2nccc(Oc3ccc(NC(=O)Nc4cc(C)on4)c(Cl)c3)c2cc1OC [Tivozanib]	2.77
O=C(Cc1ccc(-c2ccc(OCCN3CCOCC3)cc2)cn1)NCc1ccccc1 [KX2-391]	14.1
CC1=C(/C=C/C(C)=C/C=C/C(C)=C/C(=O)O)C(C)(C)CCC1 [Tretinoin]	1.34
Nc1ccccc1NC(=O)c1ccc(CNC(=O)OCc2cccnc2)cc1 [Entinostat]	2.59
C=CC(=O)Nc1cc2c(Nc3ccc(F)c(Cl)c3)ncnc2cc1OCCCN1CCOCC1 [Canertinib]	8.75
CCCCC(=O)OCC(=O)[C@]1(O)Cc2c(O)c3c(c(O)c2[C@@H](O[C@H]2C[C@H](NC(=O)C(F)(F)F)[C@H](O)[C@H](C)O2)C1)C(=O)c1c(OC)cccc1C3=O [Valrubicin]	3.05

System: BT-474
Test: as above
Conditions: incubation time: 72 h
Summary of the method: as §1

SMILES	drug sensitivity score
CCc1cncnc1N1CCN(Cc2nc3ccc(C(F)(F)F)cc3[nH]2)CC1	0.467
Oc1ncc(N(CCCl)CCCl)c(O)n1 [Uracil mustard]	0
COc1cc2nccc(Oc3ccc(NC(=O)Nc4cc(C)on4)c(Cl)c3)c2cc1OC [Tivozanib]	0
O=C(Cc1ccc(-c2ccc(OCCN3CCOCC3)cc2)cn1)NCc1ccccc1 [KX2-391]	12.8
CC1=C(/C=C/C(C)=C/C=C/C(C)=C/C(=O)O)C(C)(C)CCC1 [Tretinoin]	0
Nc1ccccc1NC(=O)c1ccc(CNC(=O)OCc2cccnc2)cc1 [Entinostat]	2.59
C=CC(=O)Nc1cc2c(Nc3ccc(F)c(Cl)c3)ncnc2cc1OCCCN1CCOCC1 [Canertinib]	6.57
CCCCC(=O)OCC(=O)[C@]1(O)Cc2c(O)c3c(c(O)c2[C@@H](O[C@H]2C[C@H](NC(=O)C(F)(F)F)[C@H](O)[C@H](C)O2)C1)C(=O)c1c(OC)cccc1C3=O [Valrubicin]	3.82

System: MDA-MB-436
Test: as above
Conditions: incubation time: 72 h
Summary of the method: as §1

SMILES	drug sensitivity score
CCc1cncnc1N1CCN(Cc2nc3ccc(C(F)(F)F)cc3[nH]2)CC1	0
Oc1ncc(N(CCCl)CCCl)c(O)n1 [Uracil mustard]	0
COc1cc2nccc(Oc3ccc(NC(=O)Nc4cc(C)on4)c(Cl)c3)c2cc1OC [Tivozanib]	0
O=C(Cc1ccc(-c2ccc(OCCN3CCOCC3)cc2)cn1)NCc1ccccc1 [KX2-391]	21
CC1=C(/C=C/C(C)=C/C=C/C(C)=C/C(=O)O)C(C)(C)CCC1 [Tretinoin]	0
Nc1ccccc1NC(=O)c1ccc(CNC(=O)OCc2cccnc2)cc1 [Entinostat]	2.51
C=CC(=O)Nc1cc2c(Nc3ccc(F)c(Cl)c3)ncnc2cc1OCCCN1CCOCC1 [Canertinib]	4.2
CCCCC(=O)OCC(=O)[C@]1(O)Cc2c(O)c3c(c(O)c2[C@@H](O[C@H]2C[C@H](NC(=O)C(F)(F)F)[C@H](O)[C@H](C)O2)C1)C(=O)c1c(OC)cccc1C3=O [Valrubicin]	9.03

System: CAL-51
Test: as above
Conditions: incubation time: 72 h
Summary of the method: as §1

SMILES	drug sensitivity score
CCc1cncnc1N1CCN(Cc2nc3ccc(C(F)(F)F)cc3[nH]2)CC1	7.14
Oc1ncc(N(CCCl)CCCl)c(O)n1 [Uracil mustard]	0
COc1cc2nccc(Oc3ccc(NC(=O)Nc4cc(C)on4)c(Cl)c3)c2cc1OC [Tivozanib]	0
O=C(Cc1ccc(-c2ccc(OCCN3CCOCC3)cc2)cn1)NCc1ccccc1 [KX2-391]	25.9
CC1=C(/C=C/C(C)=C/C=C/C(C)=C/C(=O)O)C(C)(C)CCC1 [Tretinoin]	0
Nc1ccccc1NC(=O)c1ccc(CNC(=O)OCc2cccnc2)cc1 [Entinostat]	12.8
C=CC(=O)Nc1cc2c(Nc3ccc(F)c(Cl)c3)ncnc2cc1OCCCN1CCOCC1 [Canertinib]	14.1
CCCCC(=O)OCC(=O)[C@]1(O)Cc2c(O)c3c(c(O)c2[C@@H](O[C@H]2C[C@H](NC(=O)C(F)(F)F)[C@H](O)[C@H](C)O2)C1)C(=O)c1c(OC)cccc1C3=O [Valrubicin]	16.8

System: BT-549
Test: as above
Conditions: incubation time: 72 h
Summary of the method: as §1

SMILES	drug sensitivity score
CCc1cncnc1N1CCN(Cc2nc3ccc(C(F)(F)F)cc3[nH]2)CC1	1.94
Oc1ncc(N(CCCl)CCCl)c(O)n1 [Uracil mustard]	0
COc1cc2nccc(Oc3ccc(NC(=O)Nc4cc(C)on4)c(Cl)c3)c2cc1OC [Tivozanib]	0
O=C(Cc1ccc(-c2ccc(OCCN3CCOCC3)cc2)cn1)NCc1ccccc1 [KX2-391]	16.3
CC1=C(/C=C/C(C)=C/C=C/C(C)=C/C(=O)O)C(C)(C)CCC1 [Tretinoin]	0
Nc1ccccc1NC(=O)c1ccc(CNC(=O)OCc2cccnc2)cc1 [Entinostat]	8.43
C=CC(=O)Nc1cc2c(Nc3ccc(F)c(Cl)c3)ncnc2cc1OCCCN1CCOCC1 [Canertinib]	7.57
CCCCC(=O)OCC(=O)[C@]1(O)Cc2c(O)c3c(c(O)c2[C@@H](O[C@H]2C[C@H](NC(=O)C(F)(F)F)[C@H](O)[C@H](C)O2)C1)C(=O)c1c(OC)cccc1C3=O [Valrubicin]	9.05

System: MDA-MB-468
Test: as above
Conditions: incubation time: 72 h
Summary of the method: as §1

SMILES	drug sensitivity score
CCc1cncnc1N1CCN(Cc2nc3ccc(C(F)(F)F)cc3[nH]2)CC1	2.68
Oc1ncc(N(CCCl)CCCl)c(O)n1 [Uracil mustard]	0
COc1cc2nccc(Oc3ccc(NC(=O)Nc4cc(C)on4)c(Cl)c3)c2cc1OC [Tivozanib]	0
O=C(Cc1ccc(-c2ccc(OCCN3CCOCC3)cc2)cn1)NCc1ccccc1 [KX2-391]	20
CC1=C(/C=C/C(C)=C/C=C/C(C)=C/C(=O)O)C(C)(C)CCC1 [Tretinoin]	2.13
Nc1ccccc1NC(=O)c1ccc(CNC(=O)OCc2cccnc2)cc1 [Entinostat]	4.34
C=CC(=O)Nc1cc2c(Nc3ccc(F)c(Cl)c3)ncnc2cc1OCCCN1CCOCC1 [Canertinib]	10.6
CCCCC(=O)OCC(=O)[C@]1(O)Cc2c(O)c3c(c(O)c2[C@@H](O[C@H]2C[C@H](NC(=O)C(F)(F)F)[C@H](O)[C@H](C)O2)C1)C(=O)c1c(OC)cccc1C3=O [Valrubicin]	11.1
